Measured values: PMC7845692 (Frontiers in Pharmacology, 2020)
Where two headings read alike, the source gives them in different places.

Assays:
[1] = test system: Human coronavirus OC43; experiment: HCoV-OC43 immunofluorescent assay (IFA) against N protein in HCT-8 cells; type: cell-based; conditions: for EC50: read-out: Human coronavirus OC43 EC50 (IFA); for Human coronavirus OC43 Selectivity index: CC50/EC50, HCT-8 cells
[2] = HCT-8 cell viability (MTS); conditions: human
[3] = cell cytotoxicity by visualization (FIPV host cells); conditions: cat
Description: (§1) The serotype II FIPV Taiwan isolate NTU156 strain, a kind gift from National Taiwan University, was propagated and titrated in Fcwf-4 cells ([Lin et al., 2009]). The EC50 for anti-FIPV activity and CC50 for cell cytotoxicity were determined as previously described ([Yang et al., 2020b]).

[4] = test system: Feline infectious peritonitis virus; experiment: anti-FIPV activity, cytopathic effect by visualization in Fcwf-4 cells; conditions: for EC50: Alphacoronavirus 1, read-out: Feline infectious peritonitis virus EC50 CPE/visualization
Description: as §1

[5] = test system: HCoV-OC43; experiment: HCoV-OC43 viral yield, end point dilution assay / TCID50; type: cell-based, Human coronavirus OC43
[6] = in vitro; conditions: human
[7] = test system: SARS-CoV-2; experiment: microbe, parasite or virus in culture; type: cell-based; conditions: Severe acute respiratory syndrome coronavirus 2, Vero C1008; Vero E6 cells, 5–7 days, Figure 5B-b; read-out: SARS-CoV-2 plaque assay EC50
[8] = Betacoronavirus 1, OC43, HCT-8, 72 h
[9] = Betacoronavirus 1, OC43, HCT-8 cells, MOI 0.05, 72 h.p.i., means ± SD
[10] = HCT-8, MOI 0.05, reduction ∼2–3 orders of magnitude
[11] = at concentrations of up to 50 μM

For `COc1cc2c3c(c4cc(OC)c(OC)c(OC)c4c2cc1OC)CC1CCC[N+]1([O-])C3` (stereo not shown) [031p13-3], the EC50 [1, 8] was 1890 ± 228 nM, the “Human coronavirus OC43 Selectivity index” value [1] was greater than 5.3 and the CC50 at 72 h ([2]; HCT-8 cells) was greater than 10000 nM. The CC50 [3] was greater than 50000 nM, the EC50 [4] was 1560 nM and the “Feline infectious peritonitis virus Selectivity index” value ([4]; CC50/EC50, Fcwf-4 cells) was greater than 32.1.
In the case of `C[C@]12CC[C@H](O)C[C@H]1CC[C@@H]1[C@@H]2CC[C@]2(C)[C@@H](c3ccc(=O)oc3)CC[C@]12O` [Bufalin, bufalin, reference compound], the EC50 [1, 8] is reported as 56 ± 4 nM, the “Human coronavirus OC43 Selectivity index” value [1] is reported as 16.1 and the “concentration of maximum reduction of HCoV-OC43 viral yield” value [5] is reported as 100 nM. The “maximum reduction of HCoV-OC43 viral yield” value [5] was 2–3 orders of magnitudes, the CC50 at 72 h [2] was 900 ± 180 nM and the CC50 [3] was 542 ± 213 nM. For the same compound, the EC50 [4] was 19 ± 9 nM and the “Feline infectious peritonitis virus Selectivity index” value ([4]; CC50/EC50, Fcwf-4 cells) was 28.5.
For `C[C@]12CC[C@H](O)C[C@H]1CC[C@@H]1[C@@H]2CC[C@]2(C)[C@@H](C3=CC(=O)OC3)CC[C@]12O` [Digitoxigenin, digitoxigenin], the EC50 [1, 8] was 323 ± 20 nM, the “Human coronavirus OC43 Selectivity index” value [1] was greater than 7.7 and the CC50 at 72 h [2] was greater than 2500 nM. The CC50 [3] was 3560 ± 375 nM, the EC50 [4] was 458 ± 18 nM and the “Feline infectious peritonitis virus Selectivity index” value ([4]; CC50/EC50, Fcwf-4 cells) was 7.8.
For `C[C@H]1O[C@@H](O[C@H]2[C@@H](O)C[C@H](O[C@H]3[C@@H](O)C[C@H](O[C@H]4CC[C@@]5(C)[C@H](CC[C@@H]6[C@@H]5C[C@@H](O)[C@]5(C)[C@@H](C7=CC(=O)OC7)CC[C@]65O)C4)O[C@@H]3C)O[C@@H]2C)C[C@H](O)[C@@H]1O` [Digoxin, digoxin], the EC50 [1, 9] was 269 ± 45 nM, the “Human coronavirus OC43 Selectivity index” value [1] was 5.2 and the CC50 [6] was 1400 ± 350 nM. For the same compound, the CC50 [3] was 1190 ± 603 nM, the “Feline infectious peritonitis virus Selectivity index” value [4] was 5.6 and the EC50 [4] was 212 ± 96 nM.
With `N#C[C@@]1(c2ccc3c(N)ncnn23)O[C@H](CO)[C@@H](O)[C@H]1O` [GS441524, GS-441524] the EC50 [1, 8] was 6930 nM, the “Human coronavirus OC43 Selectivity index” value [1] was greater than 7.2 and the EC50 [7] was 860 ± 29.2 nM. For the same compound, the CC50 at 72 h [6] was greater than 50000 nM.
With `CO[C@H]1C[C@H](O[C@H]2CC[C@@]3(C)[C@H](CC[C@@H]4[C@@H]3CC[C@]3(C)[C@@H](C5=CC(=O)OC5)[C@@H](OC(C)=O)C[C@]43O)C2)O[C@@H](C)[C@@H]1O` [Oleandrin, oleandrin] the EC50 [1, 9] was 56 ± 5 nM, the “Human coronavirus OC43 Selectivity index” value [1] was 3.8 and the “maximum reduction of HCoV-OC43 viral yield” value [5] was 2–3 orders of magnitudes. The “concentration of maximum reduction of HCoV-OC43 viral yield” value [5, 10] was 30 nM, the CC50 [6] was 211 ± 62 nM and the CC50 [3] was 2850 ± 1070 nM. For the same compound, the EC50 [4] was 729 ± 244 nM and the “Feline infectious peritonitis virus Selectivity index” value ([4]; CC50/EC50, Fcwf-4 cells) was 3.9.
For `C[C@@H]1O[C@@H](O[C@H]2C[C@@H](O)[C@]3(CO)[C@H]4[C@H](O)C[C@]5(C)[C@@H](C6=CC(=O)OC6)CC[C@]5(O)[C@@H]4CC[C@]3(O)C2)[C@H](O)[C@H](O)[C@H]1O` [Ouabain, ouabain], the EC50 [1, 9] was 71 ± 7 nM, the “Human coronavirus OC43 Selectivity index” value [1] was 7.1 and the “maximum reduction of HCoV-OC43 viral yield” value [5] was 2–3 orders of magnitudes. The “concentration of maximum reduction of HCoV-OC43 viral yield” value [5, 10] was 10 nM, the CC50 [6] was 504 ± 11 nM and the CC50 [3] was 6250 ± 2160 nM. The EC50 [4] was 1560 nM and the “Feline infectious peritonitis virus Selectivity index” value ([4]; CC50/EC50, Fcwf-4 cells) was 4.0.
For `COc1cc2c3c(c4cc(OC)c(OC)cc4c2cc1OC)CN1CCCCC1C3` (stereo not shown) [PQ09], the EC50 [1, 8] was 52 ± 6 nM, the “Human coronavirus OC43 Selectivity index” value [1] was greater than 193 and the CC50 at 72 h ([2]; HCT-8 cells) was greater than 10000 nM. For the same compound, the CC50 [3] was 3090 ± 886 nM, the EC50 [4] was 17 ± 6 nM and the “Feline infectious peritonitis virus Selectivity index” value ([4]; CC50/EC50, Fcwf-4 cells) was 182.0.
With `CCC(CC)COC(=O)[C@H](C)N[P@](=O)(OC[C@H]1O[C@@](C#N)(c2ccc3c(N)ncnn23)[C@H](O)[C@@H]1O)Oc1ccccc1` [Remdesivir] the EC50 [1, 8] was 947 ± 320 nM, the “Human coronavirus OC43 Selectivity index” value [1] was greater than 52.8 and the EC50 [7] was 647 ± 16.7 nM. For the same compound, the CC50 [6] was greater than 50000 nM.
With `CCN1CCc2c(c3cc(OC)c(OC)cc3c3cc(OC)ccc23)C1` [dbq29a] the EC50 [1, 8] was 213 ± 62 nM, the “Human coronavirus OC43 Selectivity index” value [1] was greater than 46.9 and the CC50 at 72 h ([2]; HCT-8 cells) was greater than 10000 nM. For the same compound, the CC50 [3] was 4310 ± 1120 nM, the EC50 [4] was 352 ± 77 nM and the “Feline infectious peritonitis virus Selectivity index” value ([4]; CC50/EC50, Fcwf-4 cells) was 12.3.
In the case of `C[C@]12CC[C@H](O)C[C@H]1CC[C@@H]1[C@@H]2CC[C@]2(C)[C@@](O)(c3ccoc3)CC[C@]12O` [rostafuroxin], the “inhibitory activity against HCoV-OC43” value [1, 11] is reported as “did not exhibit any inhibitory activity” and the “inhibitory activity against FIPV” value [4, 11] is reported as “did not exhibit any inhibitory activity”.
